Measured values: patent publication US20240398785A1, “SMALL MOLECULE DRUGS FOR THE INDUCTION OF TRAINED IMMUNITY” (THE UNIVERSITY OF CHICAGO, priority 2023, published 2024)

Legend:
mice = experiment: A1155463 in-vivo training, LPS challenge; design: species or system mouse
Procedure: FIGS. 6A-6H: in-vivo A1155463 trained immunity (TI) assays. FIG. 6A is a schematic showing the in-vivo training schedule. Mice were dosed intraperitoneally (i.p.) with training material (PBS or A1155463 at 15 milligrams per kilogram body weight (mg/kg)) daily for six days. […] FIG. 6B is a graph showing the interleukin-6 (IL-6) and tumor necrosis factor-alpha (TNF-α) levels (expressed as picograms per milliliter (pg/ml) 1 hour (h) following LPS challenge with either PBS (black) or A1155463 (pink); n=5. FIG. 6C is a graph showing the percentage (%) of small peritoneal macrophages (SPMs) from the peritoneal cavity of PBS (black) or A1155463 trained (pink) mice 2 h post LPS challenge on day 7. FIG. 6D is a graph showing the IL-6 levels (pg/ml) from bone-marrow cells isolated on day 7 challenged ex-vivo with LPS from either PBS (black) or A1155463 (pink) trained mice; n=3. FIG. 6E is a schematic showing the in-vivo training schedule for B16.F10 tumor challenge. FIG. 6F is a graph showing the tumor volumes (in cubic millimeters (mm3)) of mice trained with PBS (black) or A1155463 (pink) mice; n=8. FIG. 6G is a schematic of the in-vivo training schedule for B16.F10 tumor challenge with checkpoint therapy (CPT) administered on day 14 and 17. FIG. 6H is a graph showing tumor volumes (mm^3) of mice trained with PBS (black; n=4) or A1155463 (pink; n=5).
FIG. 10: Ruling out innate immune priming: Mice were trained with PBS or vehicle (black) or A1155463 (pink) according to schedule illustrated in FIG. 6A.
Since A1155463 induced training effects in-vitro, its ability to induce training in mice was studied. […] The vehicle control group was also dosed similarly to account for solvent effects. To rule out the impact of innate immune priming due to the high dosage, systemic cytokines were checked for 24 hours after the last dosing on day 6. […] […].
Apart from increased systemic cytokines, recruitment of monocyte-derived small peritoneal macrophages (SPMs) is another hallmark of enhanced training. […] Central effects of trained immunity occur at the bone-marrow progenitor favoring myelopoiesis.^39 To test if A1155463 induced training effects in bone-marrow cells, cells were isolated from the bone-marrow seven days following the training schedule described in FIG. 6A. Bone-marrow cells from PBS or A1155463 trained cells were challenged with 5 ng/mL of LPS and the supernatant was analyzed 24 hours later. […].

RAW-Blue cells = experiment: RAW-Blue NF-kb reporter assay; type: cell-based; conditions: after 18 hours
Procedure: FIG. 8: RAW-Blue assay: RAW-Blue cells (100,000 cells per well) were incubated with PBS (black), A1155463 (pink) or 100 ng/mL LPS (green) for 18 h.
(§1) Bcl-xL is an anti-apoptotic protein with some role in mediating inflammatory reactions.^32,33 Most documented inducers of trained immunity elicit an initial immune response upon administration. However, A1155463 has never been reported elicit inflammatory responses in vitro. To test if A1155463 elicited an enhanced innate response on its own in vitro, supernatant from BMDMs cultured with A1155463 for 24 hours was analyzed. […] The non-immunogenicity of A1155463 was validated using an NF-kb reporter cell line. […] Taken together, this evidence supports that A1155463 is a non-immunogenic trained immunity inducing molecule.

BMDMs = experiment: A1155463 immunogenicity, BMDM supernatant after 24 hours; type: cell-based, mouse; conditions: no challenge
Procedure: FIG. 7: Testing immunogenicity of A115463 on BMDMs: BMDMs (100,000 cells per well) were incubated with PBS (red), different doses of A1155463 (blue 10 uM, green 1 uM or purple 0.1 uM) or different concentrations of DMSO, reflective of the A1155463 doses for 24 h.
as §1

bone-marrow cells = experiment: Bone-marrow cells of trained mice challenged ex-vivo with LPS; type: in vivo, mouse; conditions: 5 ng/mL LPS ex vivo, 24 hours
Procedure: FIGS. 6A-6H: in-vivo A1155463 trained immunity (TI) assays. FIG. 6A is a schematic showing the in-vivo training schedule. Mice were dosed intraperitoneally (i.p.) with training material (PBS or A1155463 at 15 milligrams per kilogram body weight (mg/kg)) daily for six days. Mice were challenged with […] lipopolysaccharide (LPS) on day 7. FIG. 6B is a graph showing the interleukin-6 (IL-6) and tumor necrosis factor-alpha (TNF-α) levels (expressed as picograms per milliliter (pg/ml) 1 hour (h) following LPS challenge with either PBS (black) or A1155463 (pink); n=5. FIG. 6C is a graph showing the percentage (%) of small peritoneal macrophages (SPMs) from the peritoneal cavity of PBS (black) or A1155463 trained (pink) mice 2 h post LPS challenge on day 7. FIG. 6D is a graph showing the IL-6 levels (pg/ml) from bone-marrow cells isolated on day 7 challenged ex-vivo with LPS from either PBS (black) or A1155463 (pink) trained mice; n=3. FIG. 6E is a schematic showing the in-vivo training schedule for B16.F10 tumor challenge. […]
Apart from increased systemic cytokines, recruitment of monocyte-derived small peritoneal macrophages (SPMs) is another hallmark of enhanced training. […] Bone-marrow cells from PBS or A1155463 trained cells were challenged with 5 ng/mL of LPS and the supernatant was analyzed 24 hours later. […]

B16.F10 tumors = experiment: B16.F10 tumor model after A1155463 training; type: in vivo, mouse
Procedure: FIGS. 6A-6H: in-vivo A1155463 trained immunity (TI) assays. FIG. 6A is a schematic showing the in-vivo training schedule. Mice were dosed intraperitoneally (i.p.) with training material (PBS or A1155463 at 15 milligrams per kilogram body weight (mg/kg)) daily for six days. Mice were challenged with 5 mg lipopolysaccharide (LPS) on day 7. FIG. 6B is a graph showing the interleukin-6 (IL-6) and tumor necrosis factor-alpha (TNF-α) levels (expressed as picograms per milliliter (pg/ml) 1 hour (h) following LPS challenge with either PBS (black) or A1155463 (pink); n=5. FIG. 6C is a graph showing the percentage (%) of small peritoneal macrophages (SPMs) from the peritoneal cavity of PBS (black) or A1155463 trained (pink) mice 2 h post LPS challenge on day 7. FIG. 6D is a graph showing the IL-6 levels (pg/ml) from bone-marrow cells isolated on day 7 challenged ex-vivo with LPS from either PBS (black) or A1155463 (pink) trained mice; n=3. FIG. 6E is a schematic showing the in-vivo training schedule for B16.F10 tumor challenge. FIG. 6F is a graph showing the tumor volumes (in cubic millimeters (mm3)) of mice trained with PBS (black) or A1155463 (pink) mice; n=8. FIG. 6G is a schematic of the in-vivo training schedule for B16.F10 tumor challenge with checkpoint therapy (CPT) administered on day 14 and 17. […]

[1] = 15 mg/kg i.p. daily for 6 days, LPS 5 μg per mouse, after 1 hour

CN(C)CC#Cc1ccc(OCCCc2sc(N3CCc4cccc(C(=O)Nc5nc6ccccc6s5)c4C3)nc2C(=O)O)c(F)c1 [A1155463, 2-(8-(benzo[d]thiazol-2-ylcarbamoyl)-3,4-dihydroisoquinolin-2(1H)-yl)-5-(3-(4-(3-(dimethyl-amino)prop-1-yn-1-yl)-2-fluorophenoxy)propyl)thiozole-4-carboxylic acid]
systemic IL-6 or TNF-α without challenge (priming) (mice; 15 mg/kg i.p. daily for 6 days, 24 hours after the last dosing): No systemic IL-6 or TNF-α was observed | increase in IL-6 following LPS challenge (mice; [1]): 2.3 fold | increase in TNF-α following LPS challenge (mice; [1]): 1.97 fold | percentage of SPMs (mice; two hours post-LPS challenge): non-significant increase | NF-kb reporter signal vs PBS-treated cells (RAW-Blue cells): No significant difference | IL-6 levels vs PBS-treated BMDMs (BMDMs): No significant difference | increase in bone-marrow derived IL-6 levels vs untrained control (bone-marrow cells): approximately 5 fold | tumor growth vs untrained (vehicle) control (B16.F10 tumors; 15 mg/kg daily for 6 days, s.c. B16.F10 24 hours after last dosing): significant decrease in tumor growth | tumor growth with checkpoint therapy (B16.F10 tumors; plus anti-PDL1 and anti-CTLA-4 on days 14 and 17): Significantly reduced tumor growth
